According to patent US10144730B2, “Inhibitors of c-Jun-N-terminal kinase (JNK)” (Dana-Farber Cancer Institute, Inc., priority 2011, dated 2018):
“Also recorded” adds a separate entry of the source. Read-outs that look alike come from different tables or passages of the source. Blank lines part the entries; values can stand above or below the compound they belong to.

Experiments:
[1] = tested on: c-Jun phosphorylation; experiment: LanthaScreen TR-FRET cell assay for c-Jun phosphorylation in HeLa cells; assay type: cell-based; settings: for EC50: Hela cells, TNF-α stimulation, read-out: p-c-Jun EC50 (nM) Hela
Protocol: Phosphorylation was determined by measuring the time resolved FRET (TR-FRET) between a terbium labeled phospho-c-Jun specific antibody and GFP. The cells were plated in white tissue culture treated 384 well plates at a density of 10,000 cell per well in 32 μL assay medium (Opti-MEM®, supplemented with 0.5% charcoal/dextran-treated FBS, 100 U/ml penicillin and 100 μg/ml streptomycin, 0.1 mM nonessential amino acids, 1 mM sodium pyruvate, 25 mM Hepes, pH 7.3, and lacking phenol red). After overnight incubation, cells were pretreated for 90 minutes with compound (at indicated concentration) diluted in 4 μL assay buffer followed by 30 min of stimulation with 5 ng/ml of TNF-α in 4 μL assay buffer (final assay volume was 40 μl). The medium was then removed by aspiration, and the cells were lysed by adding 20 μl of lysis buffer (20 mM Tris-HCl, pH 7.6, 5 mM EDTA, 1% Nonidet P-40 substitute, 5 mM NaF, 150 mM NaCl, and 1:100 protease and phosphatase inhibitor mix, SIGMA P8340 and P2850, respectively). The lysis buffer included 2 nM of the terbium-labeled anti-c-Jun (pSer73) detection antibodies (Life Technologies). After allowing the assay to equilibrate for 60 minutes at room temperature, TR-FRET emission ratios were determined on a BMG Pherastar fluorescence plate reader (BMG Labtech, Cary, N.C.) using the following parameters: excitation at 340 nm; emission at 520 nm and 490 nm; 100 μs lag time; 200 μs integration time; and emission ratio=Em520/Em490. All data were analyzed and plotted using Graphpad Prism 4.
(§1) In parallel with biochemical evaluation, the ability of the compounds to inhibit JNK activity in cells was investigated using two independent assays formats. This is a critical issue because there are several reported JNK inhibitors with nanomolar biochemical potency that translate into micromolar cellular inhibitors. The most well characterized direct phosphorylation substrate of JNK is the transcription factor c-Jun.

[2] = molecular target: T1, JNK1 (Homo sapiens, UniProt P45983); settings: Table 2, *Literature values; cited from earlier work
T1 sequence (P45983 whole entry): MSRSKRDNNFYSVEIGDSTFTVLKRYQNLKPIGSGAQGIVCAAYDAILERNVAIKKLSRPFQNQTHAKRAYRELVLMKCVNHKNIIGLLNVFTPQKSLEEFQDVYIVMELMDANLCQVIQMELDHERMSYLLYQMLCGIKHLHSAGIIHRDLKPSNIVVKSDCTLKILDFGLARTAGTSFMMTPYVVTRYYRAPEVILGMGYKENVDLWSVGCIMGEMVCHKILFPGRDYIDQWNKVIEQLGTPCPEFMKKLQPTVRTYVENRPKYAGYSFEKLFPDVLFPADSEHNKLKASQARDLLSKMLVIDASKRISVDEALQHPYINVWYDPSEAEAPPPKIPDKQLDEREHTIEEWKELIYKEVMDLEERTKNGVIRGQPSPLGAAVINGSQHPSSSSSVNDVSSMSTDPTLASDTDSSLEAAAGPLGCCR

[3] = tested on: c-Jun phosphorylation; experiment: High throughput microscopy of c-Jun phosphorylation in A375 cells; assay type: cell-based; settings: A375 cells, anisomycin stimulation, read-out: p-c-Jun EC50 (nM) A375
Protocol: (§2) Cells were fixed in 2% paraformaldehyde for 10 min at room temperature and washed with PBS-T (Phosphate Buffered Saline, 0.1% Tween 20). Cells were permeabilized in methanol for 10 min at room temperature, washed with PBS-T, and blocked in Odyssey Blocking Buffer (LI-COR Biosciences) for 1 hour at room temperature. Cells were incubated overnight at 4° C. with antibody specific for Erk1/2(pT202/pY204), Akt(pS473), c-Jun(pS73), pP38(T180/Y182) and pSTAT3(Y705) (Cell Signaling Technology), pRSK1(S380) and pMSK1(S376) (Epitomics), and NF-κB (Santa Cruz Biotechnology) diluted 1:400 in Odyssey Blocking Buffer. […] Cells were washed twice with PBS and imaged in an imageWoRx high-throughput microscope (Applied Precision). Data were plotted using DataPflex.
as §1

[4] = molecular target: JNK2 (Homo sapiens, UniProt P45984); settings: Table 2, *Literature values; cited from earlier work
Chain of JNK2 (P45984 whole entry): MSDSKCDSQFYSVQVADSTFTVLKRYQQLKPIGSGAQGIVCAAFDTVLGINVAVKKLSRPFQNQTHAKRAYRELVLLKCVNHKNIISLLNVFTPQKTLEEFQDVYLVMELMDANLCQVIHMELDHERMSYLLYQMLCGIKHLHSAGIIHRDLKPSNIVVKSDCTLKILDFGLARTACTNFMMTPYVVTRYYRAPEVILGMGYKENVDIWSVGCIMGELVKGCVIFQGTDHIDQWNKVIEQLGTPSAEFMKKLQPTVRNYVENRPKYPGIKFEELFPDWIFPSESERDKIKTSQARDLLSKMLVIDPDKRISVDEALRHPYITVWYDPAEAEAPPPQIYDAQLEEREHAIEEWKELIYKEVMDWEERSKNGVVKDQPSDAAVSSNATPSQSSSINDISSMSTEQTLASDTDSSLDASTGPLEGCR

[5] = tested on: phosphorylation of Erk; experiment: High-throughput microscopy, phosphorylation of Erk; assay type: cell-based; settings: Homo sapiens, A-375, A375 cells, anisomycin stimulation, read-out: Cellular EC50 pErk
Protocol: (§3) A375 cells were stimulated with anisomycin (FIGS. 14A and 14C to 14F), IGF-1 (FIG. 14B), IL-6 (FIG. 14G), and TNF-α (FIG. 14H) for sixty minutes. The output of multiple signaling pathways was measured using high throughput microscopy at multiple concentrations of four JNK inhibitors and a control compound specific to each pathway DMSO (FIG. 14A), MK2206 (allosteric Akt inhibitor, Haoyuan Chemexpress Co., Limited. Hirai, et al., 2010) (FIG. 14B), PD0325901 (allosteric Mek inhibitor, Haoyuan Chemexpress Co., Limited. Barrett, et al., 2008) (FIGS. 14C and 14D), SB239063 (ATP-competitive p38 inhibitor, Haoyuan Chemexpress Co., Limited. Underwood et al., 2000) (FIGS. 14E and 14F), KIN001-040 (ATP-competitive JAK1,2,3 inhibitor, Haoyuan Chemexpress Co., Limited. Thompson et al., 2002) (FIG. 14G), and KIN001-208 (IKK inhibitor VIII, Haoyuan Chemexpress Co., Limited., Murata, et al., 2004) (FIG. 14H).
(§4) Cells were plated at 7500 cells/well in 96-well microscopy plates (Corning) in recommended media for 24 hours, and then starved in media lacking serum for 16 hours. Cells were pre-treated for 180 minutes with 10-fold stock solutions of JNK inhibitors and for 10 min with control compounds MK2206, PD0325901, SB239063, KIN040, and KIN208 and treated with 10-fold stock solutions of IGF-1, IL-6, TNF-α (all PeproTech), or anisomycin for 60 minutes. Cells were fixed in 2% paraformaldehyde for 10 min at room temperature and washed with PBS-T (Phosphate Buffered Saline, 0.1% Tween 20). Cells were permeabilized in methanol for 10 min at room temperature, washed with PBS-T, and blocked in Odyssey Blocking Buffer (LI-COR Biosciences) for 1 hour at room temperature. Cells were incubated overnight at 4° C. with antibody specific for Erk1/2(pT202/pY204), Akt(pS473), c-Jun(pS73), pP38(T180/Y182) and pSTAT3(Y705) (Cell Signaling Technology), pRSK1(S380) and pMSK1(S376) (Epitomics), and NF-κB (Santa Cruz Biotechnology) diluted 1:400 in Odyssey Blocking Buffer. Cells were washed three times in PBS-T and incubated with rabbit-specific secondary antibody labeled with Alexa Fluor 647 (Invitrogen) diluted 1:2000 in Odyssey Blocking Buffer. Cells were washed once in PBS-T and once in PBS and incubated in 250 ng/ml Hoechst 33342 (Invitrogen) and 1:1000 Whole Cell Stain (blue; Thermo Scientific) solution. Cells were washed twice with PBS and imaged in an imageWoRx high-throughput microscope (Applied Precision). Data were plotted using DataPflex. […]

[6] = tested on: phosphorylation of Msk1; experiment: High-throughput microscopy, phosphorylation of Msk1; assay type: cell-based; settings: Homo sapiens, A-375, A375 cells, anisomycin stimulation, read-out: Cellular EC50 pMSK1
Protocol: A375 cells were stimulated with anisomycin (FIGS. 14A and 14C to 14F), IGF-1 (FIG. 14B), IL-6 (FIG. 14G), and TNF-α (FIG. 14H) for sixty minutes.
as §2

[7] = tested on: phosphorylation of STAT3; experiment: High-throughput microscopy, phosphorylation of STAT3; assay type: cell-based; settings: Homo sapiens, A-375, A375 cells, IL-6 stimulation, read-out: Cellular EC50 pSTAT3
Protocol: as §3, §4

[8] = tested on: NF-kB nuclear translocation; experiment: High-throughput microscopy, NF-kB nuclear translocation; assay type: cell-based; settings: Homo sapiens, A-375, A375 cells, TNF-α stimulation, read-out: Cellular EC50 NF-kB
Protocol: as §3, §4

[9] = tested on: phosphorylation of p38; experiment: High-throughput microscopy, phosphorylation of p38; assay type: cell-based; settings: Homo sapiens, A-375, A375 cells, anisomycin stimulation, read-out: Cellular EC50 pP38
Protocol: as §3, §4

[10] = molecular target: T1, JNK1; experiment: Biochemical JNK1 kinase inhibition (Z'-lyte format); settings: Table 2
[11] = tested on: phosphorylation of RSK; experiment: High-throughput microscopy, phosphorylation of RSK; assay type: cell-based; settings: Homo sapiens, A-375, A375 cells, anisomycin stimulation, read-out: Cellular EC50 pRSK
Protocol: as §3, §4

[12] = tested on: panel of 442 distinct kinases; experiment: KINOMEscan kinase-binding panel; settings: concentration of 1.0 μM
[13] = molecular target: additional kinase targets; experiment: Follow-up enzymatic IC50 or Kd on potential additional kinase targets; settings: FIG. 12
Source text: Scores were obtained from the profiling against a […] using Kinome Scan™ technology as illustrated in FIG. 11.
To complement the KiNativ profiling, the in vitro kinase selectivity of several key compounds was comprehensively evaluated by two complementary approaches: a kinase-binding assays against a panel of 442 distinct kinases using the KINOMEscan methodology (DiscoverX) and a standard radioactivity-based enzymatic assays against a panel of 124 kinases (The National Centre for Protein Kinase Profiling in Dundee). […] It was attempted to confirm all these potent binding targets using either an enzymatic kinase assay or through the measurement of a dissociation constant to the kinase in question.

[14] = tested on: phosphorylation of Akt; experiment: High-throughput microscopy, phosphorylation of Akt; assay type: cell-based; settings: Homo sapiens, A-375, A375 cells, IGF-1 stimulation, read-out: Cellular EC50 pAkt
Protocol: as §3, §4

[15] = tested on: 260 kinases in A375 cells; experiment: KiNativ cellular kinase selectivity profiling in A375 cells; assay type: cell-based; settings: 1 μM, 3 hours
Protocol: FIG. 9 illustrates the cellular kinase selectivity as assessed using the KiNativ™ technology.
The kinase selectivity of several key compounds was first evaluated using a chemical proteomic approach named KiNativ which detects 260 kinases in A375 cells (ActivX Biosciences). To probe the intracellular targets of the compounds, A375 cells were incubated with the inhibitors and then looked for protection of labeling by an ATP-biotin probe that non-specifically labels conserved lysines on kinases and other nucleotide-dependent enzymes. This provided an important advantage relative to the in vitro kinase selectivity profiling because in vitro the short incubation times and presence of reactive thiols in the buffers can potentially cause false negatives for acrylamide-modified kinase inhibitors. […] Since cysteine-directed covalent kinase inhibitors will sometimes cross-react with kinases that contain an equivalently placed cysteine, a sequence alignment was performed to identify all kinases which have a cysteine near JNK1 Cys116 (FIG. 10). […] The dramatic selectivity improvement that results from introduction of this flag-methyl group has been previously reported for imatinib (Zimmermann et al., 1996).

[16] = molecular target: JNK3 (Homo sapiens, UniProt P53779); experiment: Biochemical JNK3 kinase inhibition (Z'-lyte format)
Chain of JNK3 (P53779 whole entry): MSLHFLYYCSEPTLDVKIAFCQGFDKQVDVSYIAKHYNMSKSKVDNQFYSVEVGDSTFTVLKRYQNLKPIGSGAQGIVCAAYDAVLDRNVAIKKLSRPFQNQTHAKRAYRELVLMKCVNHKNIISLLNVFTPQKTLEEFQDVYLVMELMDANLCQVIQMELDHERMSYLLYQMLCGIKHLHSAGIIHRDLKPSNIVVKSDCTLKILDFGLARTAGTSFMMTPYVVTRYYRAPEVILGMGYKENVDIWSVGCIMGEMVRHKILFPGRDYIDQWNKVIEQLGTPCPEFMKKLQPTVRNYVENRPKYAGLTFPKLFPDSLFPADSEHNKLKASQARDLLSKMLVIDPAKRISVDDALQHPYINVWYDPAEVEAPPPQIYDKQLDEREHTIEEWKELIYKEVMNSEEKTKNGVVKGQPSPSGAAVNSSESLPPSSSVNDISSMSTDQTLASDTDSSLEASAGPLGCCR

[17] = tested on: JNK; experiment: Binding kinetics (pulse-chase) assay, ATP-biotin labeling of JNK in A375 cells; assay type: cell-based; settings: 1 μM compound
Protocol: A375 cells were incubated with inhibitors for the indicated amount of time after which cell lysates were prepared and labeled with ATP-biotin. Biotinylated proteins were pulled down with streptavidin beads and material bound to the beads was eluted and separate by SDS-PAGE followed by Western blot analysis for JNK.
A375 cells (ATCC® CRL-1619™) were pre-treated with 1 μM compound for the indicated amounts of time. Remove the medium and wash 3 times with PBS. Resuspend the cell pellet with 1 mL Lysis Buffer (1% NP-40, 1% CHAPS, 25 mM Tris, 150 mM NaCl, Phosphatase Inhibitor Cocktail, Roche 04906845001, and Protease Inhibitor Cocktail Roche 11836170001). Rotate end-to-end for 30 min at 4° C. Lysates were cleared by centrifugation at 14000 rpm for 15 min in the Eppendorf. The cleared lysates gel filtered into Kinase Buffer (0.1% NP-40, 20 mM HEPES, 150 mM NaCl, Phosphatase Inhibitor Cocktail, and Protease Inhibitor Cocktail) using Bio-Rad 10DG colums. The total protein concentration of the gel-filtered lysate should be around 5-15 mg/ml. […]
In order to evaluate the kinetics with which JNK-IN-5 could covalently modify JNK in cells, a pulse-chase assay was developed . […] Streptavidin affinity chromatography is then used to isolate all biotinylated proteins and JNK protein is detected following SDS-PAGE and Western blotting (FIG. 8). […]

IC50's for c-Jun phosphorylation in both cellular assay formats ([1]; HeLa and A375 formats, tested in parallel): micromolar range
EC50 [1]: 2020 nM
EC50 [3]: 2400 nM
SMILES: N#CC(c1ccnc(NCCc2cccnc2)n1)c1nc2ccccc2s1 (centres unmarked) [AS601245, reference compound]
IC50 [2]: 150 nM
IC50 [4]: 220 nM

SMILES: CN(C)C/C=C/C(=O)Nc1cccc(C(=O)Nc2ccc(Nc3nccc(-c4cccnc4)n3)cc2)c1 [JNK-IN-7]
EC50 [5]: > 10000 nM
EC50 ([1]; Homo sapiens): 130 nM
EC50 [6]: > 10000 nM
EC50 [7]: > 10000 nM
EC50 [8]: > 10000 nM
EC50 [9]: > 10000 nM
IC50 [10]: 1.54 nM
EC50 [11]: > 10000 nM
number of kinases with binding inhibition of 95% or more [12]: approximately 14 kinases
Kd or IC50 against eight additional kinases [13]: ≤ 100 nM
EC50 [14]: > 10000 nM

EC50 ([1]; Homo sapiens): 6760 nM
cellular IC50 fold higher than covalent analog JNK-IN-5 ([1]; cellular c-Jun phosphorylation, relative to JNK-IN-5): 50 fold
IC50 ([16]; Table 2): 148 nM
fold less potent biochemical IC50 ([16]; on JNK1, 2, and 3, relative to JNK-IN-5): ~100 fold
EC50 ([3]; Homo sapiens, A-375): 1900 nM
SMILES: CCC(=O)Nc1cccc(C(=O)Nc2ccc(Nc3nccc(-c4cccnc4)n3)cc2)c1 [JNK-IN-6]
KiNativ result for JNK after live cell treatment [15]: did not inhibit JNK activity
protection of JNK from labeling by ATP-biotin [17]: incapable of protecting JNK from labeling by ATP-biotin; also recorded: no protection of JNK labeling
